Laboratory results taken from ChEMBL document CHEMBL1201862, “PubChem BioAssay data set” (2004).
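Briefly, cells in 96-well plates were exposed to five compound concentrations for 48 h, and endpoints were estimated by linear interpolation. GI50 marks 50% less growth.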 The source made the active and inactive calls. No stated cut-off is given here; in the data, active = GI50 up to about 1.1 µM and inactive = higher.

Experiments:
Experiment in all cases: NCI anticancer screen, dose series, 48 h
KM12 = tested on: KM12
UACC-257 = tested on: UACC-257
U-251 = tested on: U-251
SK-MEL-5 = tested on: SK-MEL-5
HT-29 = tested on: HT-29
SNB-19 = tested on: SNB-19
SF-539 = tested on: SF-539
K562 = tested on: K562
SNB-75 = tested on: SNB-75
EKVX = tested on: EKVX
SF-268 = tested on: SF-268
UO-31 = tested on: UO-31
ACHN = tested on: ACHN
CAKI-1 = tested on: CAKI-1
LOX IMVI = tested on: LOX IMVI
MOLT-4 = tested on: MOLT-4
HL-60 = tested on: HL-60
UACC-62 = tested on: UACC-62
SR = tested on: SR

| SMILES | GI50 (KM12) | GI50 (UACC-257) | GI50 (U-251) | GI50 (SK-MEL-5) | GI50 (HT-29) | GI50 (SNB-19) | GI50 (SF-539) | GI50 (K562) | GI50 (SNB-75) | GI50 (EKVX) | GI50 (SF-268) | GI50 (UO-31) | GI50 (ACHN) | GI50 (CAKI-1) | GI50 (LOX IMVI) | GI50 (MOLT-4) | GI50 (HL-60) | GI50 (UACC-62) | GI50 (SR) |
| --- | --- | --- | --- | --- | --- | --- | --- | --- | --- | --- | --- | --- | --- | --- | --- | --- | --- | --- | --- |
| O=c1c(-c2ccccc2)c2oc(c1-c1ccccc1)CSCc1cccc(c1)CSC2 | 60.3 µM (inactive) | > 100 µM (inactive) | 31 µM (inactive) | 54.2 µM (inactive) | 51.9 µM (inactive) | 33 µM (inactive) | 22.7 µM (inactive) | 62.5 µM (inactive) | 15.3 µM (inactive) | 42.1 µM (inactive) | 30.5 µM (inactive) | 32.1 µM (inactive) | 18.5 µM (inactive) | 34.2 µM (inactive) | 32.9 µM (inactive) | > 100 µM (inactive) | 67.9 µM (inactive) | 44.1 µM (inactive) |  |
| C[n+]1c2ccccc2c(CNCC(=O)O)c2ccccc21 | 0.452 µM (active) | 10.9 µM (inactive) | 3.62 µM (inactive) | 3.98 µM (inactive) | 0.711 µM (active) | 10.2 µM (inactive) | 2.12 µM (inactive) | 0.504 µM (active) | 8.41 µM (inactive) | 2.56 µM (inactive) | 0.459 µM (active) | 10.9 µM (inactive) | 0.61 µM (active) | 0.406 µM (active) |  | 0.223 µM (active) | 0.187 µM (active) | 1.21 µM (inactive) | 0.238 µM (active) |
| CCOC(=O)[C@H]1Nc2ccc(O)cc2C2c3ccccc3CC21 (some centres not stated) | > 100 µM (inactive) | 37.7 µM (inactive) | 88.7 µM (inactive) | 33.3 µM (inactive) | > 100 µM (inactive) | > 100 µM (inactive) | > 100 µM (inactive) | 52.5 µM (inactive) | 36.9 µM (inactive) | 42.3 µM (inactive) | > 100 µM (inactive) | 98.2 µM (inactive) | 51.4 µM (inactive) | > 100 µM (inactive) | 81.3 µM (inactive) | 33 µM (inactive) |  | 51.3 µM (inactive) |  |
| Cc1ccc(S(=NS(=O)(=O)c2ccc(C)cc2)c2ccc(C)cc2)cc1 | 48.5 µM (inactive) | > 100 µM (inactive) | 57.5 µM (inactive) |  | > 100 µM (inactive) | > 100 µM (inactive) | > 100 µM (inactive) | 36.1 µM (inactive) |  | 86.5 µM (inactive) | 76.2 µM (inactive) | 63.7 µM (inactive) | > 100 µM (inactive) |  |  | > 10 µM (inactive) | 34.7 µM (inactive) |  | 36.9 µM (inactive) |
| COc1cccc(C2C(C(=O)Nc3cc(=O)n(C)c(=O)n3C)=C(C)NC(C)=C2C(=O)Nc2cc(=O)n(C)c(=O)n2C)c1O | > 100 µM (inactive) | > 100 µM (inactive) | > 100 µM (inactive) | > 100 µM (inactive) | > 100 µM (inactive) | > 100 µM (inactive) | > 100 µM (inactive) | > 100 µM (inactive) | 23.9 µM (inactive) | > 100 µM (inactive) | > 100 µM (inactive) | > 100 µM (inactive) | > 100 µM (inactive) | > 100 µM (inactive) | > 100 µM (inactive) | > 100 µM (inactive) | > 100 µM (inactive) |  |  |
| Cc1ccc(S(=O)(=O)C2CC2(Cl)Cl)cc1 (configuration not stated) | 66.2 µM (inactive) | 21.2 µM (inactive) | > 100 µM (inactive) |  | 18.8 µM (inactive) | > 100 µM (inactive) | 31.4 µM (inactive) | 26.5 µM (inactive) | 55.7 µM (inactive) | > 100 µM (inactive) | 34 µM (inactive) | 22 µM (inactive) | 25.6 µM (inactive) | 26.6 µM (inactive) | 15.9 µM (inactive) | 13.9 µM (inactive) |  | 27.4 µM (inactive) |  |
| C[N+](C)(C)c1ncnc2c1ncn2C1CCCO1 (configuration not stated) | > 100 µM (inactive) | > 100 µM (inactive) | > 100 µM (inactive) | > 100 µM (inactive) | > 100 µM (inactive) | > 100 µM (inactive) | > 100 µM (inactive) | > 100 µM (inactive) | 84.9 µM (inactive) | > 100 µM (inactive) | > 100 µM (inactive) | > 100 µM (inactive) | > 100 µM (inactive) |  |  | > 100 µM (inactive) | 56.4 µM (inactive) | > 100 µM (inactive) |  |
| Cc1ccc(S(=O)(=O)NC2(C=O)CCC(C(C)(C)C)CC2)cc1 (configuration not stated) | 27 µM (inactive) | 34.9 µM (inactive) | 34.3 µM (inactive) | 21.9 µM (inactive) | 32.1 µM (inactive) | 68.7 µM (inactive) | 44.6 µM (inactive) | 28.8 µM (inactive) | 45.2 µM (inactive) | 38.1 µM (inactive) | 38.9 µM (inactive) | 38.1 µM (inactive) | 32.5 µM (inactive) | > 100 µM (inactive) |  | 16.5 µM (inactive) | 20.1 µM (inactive) | 39 µM (inactive) | 15.2 µM (inactive) |
| COc1nc2c(c(O)c(C)c(=O)n2OC2OCC(OC(C)=O)C(OC(C)=O)C2OC(C)=O)c(=O)n1C (configuration not stated) | > 100 µM (inactive) |  | > 100 µM (inactive) | > 100 µM (inactive) | > 100 µM (inactive) | > 100 µM (inactive) | 60.4 µM (inactive) | > 100 µM (inactive) | > 100 µM (inactive) | > 100 µM (inactive) | > 100 µM (inactive) | > 100 µM (inactive) | > 100 µM (inactive) |  | > 100 µM (inactive) | > 100 µM (inactive) |  | > 100 µM (inactive) | > 100 µM (inactive) |
| C[N+](C)(C)CC(=O)N/N=C(/C=C/c1ccccc1)CC1OC(=O)c2ccccc21 (configuration not stated) | > 100 µM (inactive) | > 100 µM (inactive) | > 100 µM (inactive) | > 100 µM (inactive) | > 10 µM (inactive) | > 100 µM (inactive) | > 100 µM (inactive) | > 100 µM (inactive) | > 100 µM (inactive) | > 100 µM (inactive) | > 100 µM (inactive) | > 100 µM (inactive) | > 100 µM (inactive) | > 100 µM (inactive) | > 10 µM (inactive) | > 100 µM (inactive) | > 100 µM (inactive) | > 100 µM (inactive) |  |
| O=c1[nH]cc(F)c(=O)n1C1OC(CO)C(O)C1O (configuration not stated) | > 100 µM (inactive) | > 100 µM (inactive) | > 100 µM (inactive) | > 100 µM (inactive) | > 100 µM (inactive) | > 100 µM (inactive) |  | > 100 µM (inactive) | > 100 µM (inactive) | > 100 µM (inactive) | > 100 µM (inactive) | > 100 µM (inactive) | > 100 µM (inactive) | > 100 µM (inactive) | > 100 µM (inactive) | > 100 µM (inactive) | > 100 µM (inactive) |  |  |
| CCOc1ccc2c(c1)[n+]([O-])c(C(N)=O)c(N)[n+]2[O-] | > 100 µM (inactive) | > 100 µM (inactive) | > 100 µM (inactive) | > 100 µM (inactive) | > 100 µM (inactive) | > 100 µM (inactive) | > 100 µM (inactive) | > 100 µM (inactive) | > 100 µM (inactive) | > 100 µM (inactive) | > 100 µM (inactive) | > 100 µM (inactive) | > 100 µM (inactive) | > 100 µM (inactive) |  | > 100 µM (inactive) | > 100 µM (inactive) |  | > 100 µM (inactive) |
| O=C(O)/C(Cl)=C(\Cl)Nc1cccc(C(F)(F)F)c1 |  |  | > 100 µM (inactive) |  | > 100 µM (inactive) |  |  | > 100 µM (inactive) | > 100 µM (inactive) | > 100 µM (inactive) | > 100 µM (inactive) | > 100 µM (inactive) | > 100 µM (inactive) | > 100 µM (inactive) | > 100 µM (inactive) |  | 39.5 µM (inactive) | > 100 µM (inactive) |  |
| COc1ccc(/C=c2/sc3n(c2=O)C(c2ccccc2)C2(O)CCCCC2N=3)cc1 (configuration not stated) |  | > 12.5 µM (inactive) | > 12.5 µM (inactive) | > 12.5 µM (inactive) | > 12.5 µM (inactive) | > 12.5 µM (inactive) |  | > 12.5 µM (inactive) | > 12.5 µM (inactive) |  | > 12.5 µM (inactive) | > 12.5 µM (inactive) | > 12.5 µM (inactive) | > 12.5 µM (inactive) | > 12.5 µM (inactive) | > 12.5 µM (inactive) | > 12.5 µM (inactive) | > 12.5 µM (inactive) | > 12.5 µM (inactive) |
| CCCC(S(=O)(=O)c1ccccc1)S(=O)(=O)c1ccccc1 | > 100 µM (inactive) | > 100 µM (inactive) | > 100 µM (inactive) | > 100 µM (inactive) | > 100 µM (inactive) |  | > 100 µM (inactive) | > 100 µM (inactive) | > 100 µM (inactive) | > 100 µM (inactive) |  | > 100 µM (inactive) | > 100 µM (inactive) | > 100 µM (inactive) |  | > 100 µM (inactive) | > 100 µM (inactive) | > 100 µM (inactive) |  |
| C[C@@H]1OC(=O)N2CCCC(=C3SCCCS3)C12 (some centres not stated) | 60.3 µM (inactive) | 37.1 µM (inactive) | > 100 µM (inactive) |  | 70.1 µM (inactive) | > 100 µM (inactive) | > 100 µM (inactive) | 43.6 µM (inactive) | 51.2 µM (inactive) | > 100 µM (inactive) | 61.9 µM (inactive) | 19.4 µM (inactive) | 93.5 µM (inactive) |  | 94 µM (inactive) | 33.3 µM (inactive) |  | 56.1 µM (inactive) |  |
| Nc1nc2c(ncn2CCCC(c2ccccc2)P(=O)(O)O)c(=O)[nH]1 (configuration not stated) | > 100 µM (inactive) | > 100 µM (inactive) | > 100 µM (inactive) | > 100 µM (inactive) | > 100 µM (inactive) | > 100 µM (inactive) | > 100 µM (inactive) | > 100 µM (inactive) | > 100 µM (inactive) | > 100 µM (inactive) | > 100 µM (inactive) | > 100 µM (inactive) | > 100 µM (inactive) | > 100 µM (inactive) | > 100 µM (inactive) | > 100 µM (inactive) | > 100 µM (inactive) | > 100 µM (inactive) |  |
